ChEMBL document CHEMBL5331044, “Recent advances in the development of EGFR degraders: PROTACs and LYTACs” (Eur J Med Chem, 2022)
Values belong to the compound of their own block, whether it stands above or below them.

Tests used:
[1] = molecular target: T1, Epidermal growth factor receptor (Homo sapiens, UniProt P00533); assay: Inhibition of EGFR in human NCI-H1975 cells; assay type: cell-based
[2] = molecular target: Epidermal growth factor receptor (Homo sapiens, UniProt P00533, EX19DEL); assay: Inhibition of EGFR del19 mutant in human HCC827 cells; assay type: cell-based
[3] = molecular target: T1, Epidermal growth factor receptor; assay: Inhibition of wild type EGFR in human A549 cells; assay type: cell-based
[4] = molecular target: T1, Epidermal growth factor receptor; assay: Inhibition of wild type EGFR in human A-431 cells; assay type: cell-based
[5] = system: NCI-H1975; assay: Antiproliferative activity against human NCI-H1975 cells expressing EGFR T790M mutant assessed as inhibition of EGFR phosphorylation; assay type: functional, cell-based
[6] = system: Epidermal growth factor receptor (Homo sapiens), P00533 [UNDEFINED MUTATION]; assay: Inhibition of EGFR del19 mutant (unknown origin) assessed as fold change
[7] = system: BaF3; assay: Antiproliferative activity against mouse BaF3 cells transfected with EGFR […]/T790M mutant assessed as inhibition of cell growth; assay type: functional, cell-based
[8] = system: NCI-H1975; assay: Antiproliferative activity against human NCI-H1975 cells expressing EGFR L858R/T790M mutant assessed as inhibition of cell growth; assay type: functional, cell-based
[9] = system: A-431; assay: Antiproliferative activity against human A-431 cells expressing wild type EGFR assessed as inhibition of cell growth; assay type: functional, cell-based
[10] = molecular target: von Hippel-Lindau disease tumor suppressor/Receptor tyrosine-protein kinase erbB-2 (Homo sapiens, UniProt P04626+P40337); assay: PROTAC activity at VHL/HER2 in human SK-BR-3 cells assessed as protein degradation incubated for 24 hrs by immunoblot analysis; assay type: cell-based
[11] = molecular target: von Hippel-Lindau disease tumor suppressor/Epidermal growth factor receptor (Homo sapiens, UniProt P00533+P40337); assay: PROTAC activity at VHL/EGFR ins20 mutant in human HeLa cells assessed as protein degradation incubated for 24 hrs by immunoblot analysis; assay type: cell-based
von Hippel-Lindau disease tumor suppressor/Epidermal growth factor receptor, sequence (P00533 25-1210 limits assumed, stated change not applied): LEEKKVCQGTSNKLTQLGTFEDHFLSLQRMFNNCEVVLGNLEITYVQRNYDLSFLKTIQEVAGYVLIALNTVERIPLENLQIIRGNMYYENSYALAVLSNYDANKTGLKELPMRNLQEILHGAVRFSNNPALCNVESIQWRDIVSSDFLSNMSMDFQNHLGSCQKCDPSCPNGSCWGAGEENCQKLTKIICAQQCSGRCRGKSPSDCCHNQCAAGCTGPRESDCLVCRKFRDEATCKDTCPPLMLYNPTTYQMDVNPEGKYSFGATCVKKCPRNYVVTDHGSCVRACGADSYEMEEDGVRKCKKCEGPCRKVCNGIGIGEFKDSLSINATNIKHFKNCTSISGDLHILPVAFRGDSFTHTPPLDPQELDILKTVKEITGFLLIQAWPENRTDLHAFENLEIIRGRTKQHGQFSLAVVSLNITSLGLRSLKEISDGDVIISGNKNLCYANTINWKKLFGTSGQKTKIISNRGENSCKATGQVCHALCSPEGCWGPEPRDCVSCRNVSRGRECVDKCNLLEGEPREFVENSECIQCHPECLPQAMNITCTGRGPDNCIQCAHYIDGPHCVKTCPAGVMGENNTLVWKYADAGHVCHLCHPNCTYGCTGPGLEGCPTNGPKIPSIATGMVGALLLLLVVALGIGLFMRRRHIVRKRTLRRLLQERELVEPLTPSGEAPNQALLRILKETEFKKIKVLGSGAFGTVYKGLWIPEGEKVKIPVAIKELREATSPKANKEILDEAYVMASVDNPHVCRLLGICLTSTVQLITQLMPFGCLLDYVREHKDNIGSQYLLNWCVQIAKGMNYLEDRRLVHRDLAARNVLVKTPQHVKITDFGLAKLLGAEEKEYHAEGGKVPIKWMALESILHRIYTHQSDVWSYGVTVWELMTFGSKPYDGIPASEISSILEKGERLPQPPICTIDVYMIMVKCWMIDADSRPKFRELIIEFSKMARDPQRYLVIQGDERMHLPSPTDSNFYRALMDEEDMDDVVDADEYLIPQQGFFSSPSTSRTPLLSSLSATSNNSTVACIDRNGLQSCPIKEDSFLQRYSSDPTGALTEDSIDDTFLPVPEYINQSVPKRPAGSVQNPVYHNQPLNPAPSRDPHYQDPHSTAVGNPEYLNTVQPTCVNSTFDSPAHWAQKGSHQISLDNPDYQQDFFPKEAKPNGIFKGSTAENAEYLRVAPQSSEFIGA
von Hippel-Lindau disease tumor suppressor/Epidermal growth factor receptor, sequence (P40337 whole entry, stated change not applied): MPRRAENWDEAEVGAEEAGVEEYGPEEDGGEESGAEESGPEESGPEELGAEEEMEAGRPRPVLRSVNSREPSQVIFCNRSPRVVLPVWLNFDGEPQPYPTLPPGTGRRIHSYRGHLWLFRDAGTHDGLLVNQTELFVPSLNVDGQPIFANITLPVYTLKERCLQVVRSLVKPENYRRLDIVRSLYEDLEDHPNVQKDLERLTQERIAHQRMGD

T1 sequence (P00533 whole entry): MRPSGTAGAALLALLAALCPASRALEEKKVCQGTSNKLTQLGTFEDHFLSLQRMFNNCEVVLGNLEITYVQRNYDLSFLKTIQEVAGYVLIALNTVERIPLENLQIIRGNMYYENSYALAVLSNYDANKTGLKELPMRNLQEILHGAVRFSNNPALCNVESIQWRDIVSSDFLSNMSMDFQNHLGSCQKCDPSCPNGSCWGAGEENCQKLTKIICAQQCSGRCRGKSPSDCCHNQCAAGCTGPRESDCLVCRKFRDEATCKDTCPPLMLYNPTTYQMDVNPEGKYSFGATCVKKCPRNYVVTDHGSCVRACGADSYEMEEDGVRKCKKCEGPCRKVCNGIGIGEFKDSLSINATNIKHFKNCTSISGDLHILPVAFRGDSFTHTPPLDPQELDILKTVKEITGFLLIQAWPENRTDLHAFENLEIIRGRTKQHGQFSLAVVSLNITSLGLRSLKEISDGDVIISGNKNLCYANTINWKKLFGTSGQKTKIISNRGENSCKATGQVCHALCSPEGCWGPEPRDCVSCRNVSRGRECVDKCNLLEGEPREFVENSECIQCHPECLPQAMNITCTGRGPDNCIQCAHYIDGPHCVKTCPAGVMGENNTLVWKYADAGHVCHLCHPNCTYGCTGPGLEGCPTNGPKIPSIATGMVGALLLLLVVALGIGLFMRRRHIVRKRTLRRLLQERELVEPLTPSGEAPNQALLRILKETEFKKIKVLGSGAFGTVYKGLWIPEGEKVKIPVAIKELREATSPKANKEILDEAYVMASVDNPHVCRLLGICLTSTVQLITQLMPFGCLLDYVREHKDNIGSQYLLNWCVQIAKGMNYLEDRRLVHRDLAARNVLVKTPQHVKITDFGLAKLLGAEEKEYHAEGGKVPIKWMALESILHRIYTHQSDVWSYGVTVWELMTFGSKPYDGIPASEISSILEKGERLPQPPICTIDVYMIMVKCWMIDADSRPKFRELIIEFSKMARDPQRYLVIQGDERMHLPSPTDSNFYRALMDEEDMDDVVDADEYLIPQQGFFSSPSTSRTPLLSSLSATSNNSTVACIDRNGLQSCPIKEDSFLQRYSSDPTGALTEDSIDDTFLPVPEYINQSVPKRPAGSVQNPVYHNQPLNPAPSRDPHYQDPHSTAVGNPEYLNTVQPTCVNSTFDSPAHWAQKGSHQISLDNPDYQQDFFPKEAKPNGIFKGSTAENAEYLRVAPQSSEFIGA
von Hippel-Lindau disease tumor suppressor/Receptor tyrosine-protein kinase erbB-2, sequence (P04626 whole entry): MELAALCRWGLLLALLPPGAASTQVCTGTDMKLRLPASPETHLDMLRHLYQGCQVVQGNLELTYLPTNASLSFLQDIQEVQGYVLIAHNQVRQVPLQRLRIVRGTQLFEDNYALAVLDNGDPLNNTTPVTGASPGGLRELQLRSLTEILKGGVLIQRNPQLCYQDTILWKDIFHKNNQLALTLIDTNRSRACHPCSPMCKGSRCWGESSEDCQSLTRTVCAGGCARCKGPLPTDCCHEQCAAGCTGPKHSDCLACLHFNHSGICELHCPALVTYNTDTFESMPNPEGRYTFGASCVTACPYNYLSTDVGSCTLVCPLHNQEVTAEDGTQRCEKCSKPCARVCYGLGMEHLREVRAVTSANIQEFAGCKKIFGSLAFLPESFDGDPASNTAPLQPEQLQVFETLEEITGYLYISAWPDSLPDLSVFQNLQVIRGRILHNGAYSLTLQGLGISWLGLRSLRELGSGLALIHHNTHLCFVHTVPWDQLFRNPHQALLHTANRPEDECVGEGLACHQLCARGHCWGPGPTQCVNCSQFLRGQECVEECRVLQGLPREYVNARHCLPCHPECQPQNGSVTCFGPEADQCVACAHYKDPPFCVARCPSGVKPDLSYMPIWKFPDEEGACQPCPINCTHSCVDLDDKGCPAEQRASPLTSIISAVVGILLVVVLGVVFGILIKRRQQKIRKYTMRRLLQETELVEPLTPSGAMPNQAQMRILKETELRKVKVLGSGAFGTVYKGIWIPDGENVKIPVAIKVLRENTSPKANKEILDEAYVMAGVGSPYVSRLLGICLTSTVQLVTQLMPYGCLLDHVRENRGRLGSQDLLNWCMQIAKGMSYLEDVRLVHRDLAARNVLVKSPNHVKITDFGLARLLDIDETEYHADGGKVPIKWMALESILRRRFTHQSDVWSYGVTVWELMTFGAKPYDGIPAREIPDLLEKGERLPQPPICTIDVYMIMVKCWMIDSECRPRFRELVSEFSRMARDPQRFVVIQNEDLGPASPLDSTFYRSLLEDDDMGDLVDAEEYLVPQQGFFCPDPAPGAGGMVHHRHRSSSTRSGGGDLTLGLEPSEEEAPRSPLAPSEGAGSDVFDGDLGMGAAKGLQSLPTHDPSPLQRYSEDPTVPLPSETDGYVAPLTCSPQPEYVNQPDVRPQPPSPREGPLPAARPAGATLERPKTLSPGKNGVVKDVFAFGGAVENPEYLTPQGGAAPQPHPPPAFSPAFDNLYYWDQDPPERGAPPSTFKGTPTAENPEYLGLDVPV
von Hippel-Lindau disease tumor suppressor/Receptor tyrosine-protein kinase erbB-2, sequence (P40337 whole entry): as the sequence (P40337 whole entry, stated change not applied) above
Epidermal growth factor receptor (Homo sapiens, UniProt P00533, EX19DEL), sequence (P00533 whole entry, looked up, stated change not applied): as the sequence (P00533 whole entry) above

Compound: O=C1CCC(N2C(=O)c3cccc(NCCOCCOCCOCCN4CCN(c5ccc(-c6ccc7c(c6)C(=O)N(C(C(=O)Nc6nccs6)c6ccccc6)C7)cn5)CC4)c3C2=O)C(=O)N1 (stereo unspecified)
IC50 [7]: 96 nM

Compound: O=C(Nc1nccs1)C(c1cc(F)ccc1O)N1Cc2ccccc2C1=O (stereo unspecified)
IC50 [8]: 2 nM | IC50 [9]: 1900 nM

Compound: Cc1ncsc1-c1ccc(CNC(=O)[C@@H]2C[C@@H](O)CN2C(=O)[C@@H](NC(=O)COCCOCCOc2ccc(-c3ccc4ncnc(Nc5ccc(OCc6cccc(F)c6)c(Cl)c5)c4c3)cc2)C(C)(C)C)cc1
DC50 [10]: 102 nM | DC50 [11]: 736 nM

Second part, the compound after the results:

IC50 [1]: > 20000 nM | IC50 [2]: 6 nM | IC50 [3]: > 20000 nM | IC50 [4]: > 20000 nM
Compound: Cc1ncsc1-c1ccc(CNC(=O)[C@@H]2C[C@@H](O)CN2C(=O)[C@@H](NC(=O)CCCCCCCCCCn2cc(COc3cc4ncnc(Nc5ccc(F)c(Cl)c5)c4cc3NC(=O)/C=C/CN3CCCCC3)nn2)C(C)(C)C)cc1

IC50 [5]: 93 nM
Compound: CN(C)C/C=C/C(=O)Nc1cc2c(Nc3ccc(F)c(Cl)c3)ncnc2cc1O[C@H]1CCOC1 [AFATINIB]

fold change (FC) [6]: 1000
Compound: COc1cc2ncnc(N(Cc3ccc([N+](=O)[O-])cc3)c3ccc(F)c(Cl)c3)c2cc1OCCOCCOCCOCCC(=O)Nc1cccc2c1CN(C1CCC(=O)NC1=O)C2=O (stereo unspecified)
